Patent US6130238A, “3-(cyclohexanoheteroarylidenyl)-2-indolinone protein tyrosine kinase inhibitors” (Sugen, Inc., priority 1998, dated 2000)
pIC50: −log10 of the molar value.

Key:
FLK-1R = molecular target: T1, FLK-1R (Mus musculus, UniProt P35918); test: FLK-1 receptor kinase activity, cellular ELISA (NIH3T3 C7#3 cells, VEGF stimulated); format: cell-based
T1 construct: expressed in transfected cells; host or cells: NIH3T3 C7#3 cells

LCK = molecular target: T2, LCK (Homo sapiens, UniProt P06239); test: Biochemical lck Assay--ELISA
T2 construct: made in house; host or cells: Schizosaccharomyces pombe SP200, pRSP expression plasmid
From the text: (§1) IC50 refers to the amount (in micromoles, μM) of compound required to achieve 50% inhibition of the activity of the particular kinase being tested as compared to the activity of an untreated control.
h. Biochemical lck Assay--ELISA
This assay is used to determine lck protein kinase activities measuring phosphorylation of GST-.zeta. as the readout.
a. Yeast transformed with lck. Schizosaccharomyces Pombe is used to express recombinant Lck (Superti-Furga, et al., EMBO J, 12:2625-2634; Superti-Furga, et al., Nature Biotech., 14:600-605). S. Pombe strain SP200 (h-s leul.32 ura4 ade210) is grown as described and transformations with pRSP expression plasmids are done by the lithium acetate method (Superti-Furga, supra). Cells are grown in the presence of 1 μM thiamine […].
a. Preparation of Lck coated ELISA plate.
(§2) c. Kinase assay procedure.
2. Add 0.08 ml Kinase Reaction Mixture per well (containing 10 μl of 10× Kinase Buffer and 2 μg GST-.zeta. per well diluted with water).
(§3) 3. Add 10 μl of compound diluted in water containing 10% DMSO and pre-incubate for 15 minutes at room temperature.
4. Start kinase reaction by adding 10 μl/well of 0.1 mM ATP in water (10 μM ATP final).
5. Shake ELISA plate for 60 min. at room temperature.
14. Develop with Turbo TMB.

EGFR = molecular target: T3, EGFR (Homo sapiens, UniProt P00533); test: EGF Receptor ELISA (NIH 3T3/C7 cells); format: cell-based
T3 construct: expressed in transfected cells; host or cells: NIH 3T3/C7 cell line
Procedure: as §1
(§4) The cellular/catalytic assays described herein are performed in an ELISA format. The general procedure is a follows: a compound is introduced to cells expressing the test kinase, either naturally or recombinantly, for some period of time after which, if the test kinase is a receptor, a ligand known to activate the receptor's activity is added. The cells are lysed and the lysate is transferred to the wells of an ELISA plate previously coated with a specific antibody recognizing the substrate of the enzymatic phosphorylation reaction. Non-substrate components of the cell lysate are washed away and the amount of phosphorylation on the substrate is detected with an antibody specifically recognizing phosphotyrosine compared with control cells that were not contacted with a test compound.
EGF Receptor kinase activity in cells genetically engineered to express human EGF-R can be measured as described below:
1. […]
12. The maximal phosphotyrosine signal is determined by subtracting the value of the negative controls from the positive controls. The percent inhibition of phosphotyrosine content for extract-containing wells is then calculated, after subtraction of the negative controls.

SRC = molecular target: T4, SRC (Gallus gallus, UniProt P00523); test: Biochemical src assay--ELISA
T4 construct: made in house; host or cells: Schizosaccharomyces pombe SP200, pRSP expression plasmid; yeast from Courtneidge Laboratory (Sugen)
From the text: as §1
g. Biochemical src assay--ELISA
This assay is used to determine src protein kinase activity measuring phosphorylation of a biotinylated peptide as the readout.
h. Anti-src (327) mab: Schizosaccharomyces Pombe is used to express recombinant Src (Superti-Furga, et al., EMBO J., 12:2625-2634; Superti-Furga, et al., […]., 14:600-605). S. Pombe strain SP200 (h-s leul.32 ura4 ade210) is grown as described and transformations are pRSP expression plasmids are done by the lithium acetate method (Superti-Furga, supra). Cells are grown in the presence of 1 μM thiamine to repress expression from the nmtl promoter or in the absence of thiamine to induce expression.
a. Preparation of src coated ELISA plate.
as §2
2. Add 0.08 ml Kinase Reaction Mixture per well (containing 10 μl of 10× Kinase Buffer and 10 μM (final concentration) biotin-EEEYEEYEEEYEEEYEEEY per well diluted in water.
as §3
4. Start kinase reaction by adding 10 μl/well of 0.05 mM ATP in water (5 μM ATP final).
5. Shake ELISA plate for 15 min. at room temperature.
10. […]

FAK = FAK (Homo sapiens, UniProt Q05397); test: FAK kinase inhibition; format: biochemical
From the text: as §1

PDGFR = test: PDGF-R ELISA (U1242 cells); format: cell-based
Procedure: as §1, §4
All cell culture media, glutamine, and fetal bovine serum can be purchased from Gibco Life Technologies (Grand Island, NY) unless otherwise specified. All cells are grown in a humid atmosphere of 90-95% air and 5-10% CO2 at 37° C. All cell lines are routinely subcultured twice a week and are negative for mycoplasma as determined by the Mycotect method (Gibco). […]

HUV-EC-C cells [1] = test: HUV-EC-C Assay, aFGF (3H-thymidine incorporation); format: cell-based, human; settings: read-out: HUV-EC-C (ATCC) aFGF
From the text: as §1
(§5) The cellular/biologic assays described herein measure the amount of DNA made in response to activation of a test kinase, which is a general measure of a proliferative response. The general procedure for this assay is as follows: a compound is introduced to cells expressing the test kinase, either naturally or recombinantly, for some period of time after which, if the test kinase is a receptor, a ligand known to activate the receptor's activity is added. After incubation at least overnight, a DNA labeling reagent such as Bromodeoxy-uridine (BrdU) or 3H-thymidine is added. The amount of labeled DNA is detected with either an anti-BrdU antibody or by measuring radioactivity and is compared to control cells not contacted with a test compound.
(§6) The following protocol may also be used to measure a compound's activity against PDGF-R, FGF-R, VEGF, aFGF or Flk-1/KDR, all of which are naturally expressed by HUV-EC cells.
1. […]

HUV-EC-C cells [2] = test: HUV-EC-C Assay, VEGF (3H-thymidine incorporation); format: cell-based, human; settings: read-out: HUV-EC-C (ATCC) VEGF
From the text: as §1, §5, §6
1. […]

T1 sequence (P35918 20-1345): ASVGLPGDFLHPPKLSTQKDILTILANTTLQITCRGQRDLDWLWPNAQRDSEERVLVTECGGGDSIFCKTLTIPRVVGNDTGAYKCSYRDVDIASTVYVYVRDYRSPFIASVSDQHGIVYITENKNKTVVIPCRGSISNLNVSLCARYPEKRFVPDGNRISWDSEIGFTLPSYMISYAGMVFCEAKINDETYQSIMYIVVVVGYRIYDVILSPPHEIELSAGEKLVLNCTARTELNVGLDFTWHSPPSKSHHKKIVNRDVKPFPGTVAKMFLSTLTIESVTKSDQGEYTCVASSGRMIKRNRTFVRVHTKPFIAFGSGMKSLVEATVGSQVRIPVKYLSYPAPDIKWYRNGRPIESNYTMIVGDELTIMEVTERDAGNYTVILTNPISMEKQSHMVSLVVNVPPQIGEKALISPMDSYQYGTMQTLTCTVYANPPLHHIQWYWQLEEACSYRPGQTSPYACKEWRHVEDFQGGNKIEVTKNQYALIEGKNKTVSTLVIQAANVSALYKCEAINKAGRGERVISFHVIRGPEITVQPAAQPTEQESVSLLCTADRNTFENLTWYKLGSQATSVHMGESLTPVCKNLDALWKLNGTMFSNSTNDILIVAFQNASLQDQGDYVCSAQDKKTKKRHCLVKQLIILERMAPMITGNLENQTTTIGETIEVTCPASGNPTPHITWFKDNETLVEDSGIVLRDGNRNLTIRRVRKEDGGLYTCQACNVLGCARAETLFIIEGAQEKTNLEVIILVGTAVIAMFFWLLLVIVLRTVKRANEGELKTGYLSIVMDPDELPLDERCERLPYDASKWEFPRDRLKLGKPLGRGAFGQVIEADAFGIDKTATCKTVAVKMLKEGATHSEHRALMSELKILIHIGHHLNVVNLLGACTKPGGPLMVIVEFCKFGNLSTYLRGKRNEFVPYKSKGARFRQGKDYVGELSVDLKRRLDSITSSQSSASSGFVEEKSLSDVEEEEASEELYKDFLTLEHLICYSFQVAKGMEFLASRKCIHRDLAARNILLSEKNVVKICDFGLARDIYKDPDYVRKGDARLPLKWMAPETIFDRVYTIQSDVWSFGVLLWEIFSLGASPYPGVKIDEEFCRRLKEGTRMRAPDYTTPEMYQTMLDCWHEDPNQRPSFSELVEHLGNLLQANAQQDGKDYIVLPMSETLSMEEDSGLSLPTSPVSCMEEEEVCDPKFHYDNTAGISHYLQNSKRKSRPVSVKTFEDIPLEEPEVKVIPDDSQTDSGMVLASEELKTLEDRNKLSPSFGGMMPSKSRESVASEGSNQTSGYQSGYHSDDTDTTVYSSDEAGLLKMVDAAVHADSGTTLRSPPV
T2 sequence (P06239 whole entry, species assumed): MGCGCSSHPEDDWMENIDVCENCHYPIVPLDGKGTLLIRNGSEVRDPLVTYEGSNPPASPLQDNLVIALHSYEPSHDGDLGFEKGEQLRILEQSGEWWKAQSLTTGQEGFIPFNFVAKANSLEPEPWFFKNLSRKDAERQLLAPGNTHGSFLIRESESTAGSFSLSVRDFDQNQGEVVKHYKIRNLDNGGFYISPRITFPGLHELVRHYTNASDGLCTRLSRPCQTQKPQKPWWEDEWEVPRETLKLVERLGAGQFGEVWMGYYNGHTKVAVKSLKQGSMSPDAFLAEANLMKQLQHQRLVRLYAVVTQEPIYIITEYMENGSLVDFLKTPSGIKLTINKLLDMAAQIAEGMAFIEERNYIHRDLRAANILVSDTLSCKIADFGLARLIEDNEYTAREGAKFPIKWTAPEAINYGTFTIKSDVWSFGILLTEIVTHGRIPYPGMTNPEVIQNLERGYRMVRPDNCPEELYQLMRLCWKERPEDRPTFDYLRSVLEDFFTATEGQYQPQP
FAK, sequence (Q05397 whole entry, species assumed): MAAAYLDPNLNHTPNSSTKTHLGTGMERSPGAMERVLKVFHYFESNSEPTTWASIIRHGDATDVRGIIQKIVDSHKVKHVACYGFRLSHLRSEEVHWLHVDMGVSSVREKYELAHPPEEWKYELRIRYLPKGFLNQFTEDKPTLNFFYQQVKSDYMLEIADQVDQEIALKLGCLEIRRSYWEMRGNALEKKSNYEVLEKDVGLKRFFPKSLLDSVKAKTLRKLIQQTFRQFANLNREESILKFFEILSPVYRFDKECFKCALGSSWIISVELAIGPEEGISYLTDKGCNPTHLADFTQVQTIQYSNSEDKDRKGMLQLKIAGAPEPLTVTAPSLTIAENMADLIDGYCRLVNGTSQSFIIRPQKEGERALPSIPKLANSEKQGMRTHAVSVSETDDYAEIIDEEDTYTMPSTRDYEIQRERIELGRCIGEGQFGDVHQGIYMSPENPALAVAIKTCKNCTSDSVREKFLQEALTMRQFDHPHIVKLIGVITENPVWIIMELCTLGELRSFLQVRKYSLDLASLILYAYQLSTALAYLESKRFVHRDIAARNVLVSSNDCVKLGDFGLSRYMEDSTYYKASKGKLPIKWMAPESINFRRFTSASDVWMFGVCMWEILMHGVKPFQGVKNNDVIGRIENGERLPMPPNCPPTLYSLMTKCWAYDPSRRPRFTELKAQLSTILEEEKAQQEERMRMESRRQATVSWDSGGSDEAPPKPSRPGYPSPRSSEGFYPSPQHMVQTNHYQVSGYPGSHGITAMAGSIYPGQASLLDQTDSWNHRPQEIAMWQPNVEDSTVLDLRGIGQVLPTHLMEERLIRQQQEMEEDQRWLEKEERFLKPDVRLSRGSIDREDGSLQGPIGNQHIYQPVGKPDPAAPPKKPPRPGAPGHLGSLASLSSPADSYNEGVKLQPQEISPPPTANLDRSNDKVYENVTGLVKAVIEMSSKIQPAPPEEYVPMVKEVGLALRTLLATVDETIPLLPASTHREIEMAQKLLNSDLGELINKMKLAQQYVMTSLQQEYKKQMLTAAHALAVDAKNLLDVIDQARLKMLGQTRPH
T3 sequence (P00533 25-1210): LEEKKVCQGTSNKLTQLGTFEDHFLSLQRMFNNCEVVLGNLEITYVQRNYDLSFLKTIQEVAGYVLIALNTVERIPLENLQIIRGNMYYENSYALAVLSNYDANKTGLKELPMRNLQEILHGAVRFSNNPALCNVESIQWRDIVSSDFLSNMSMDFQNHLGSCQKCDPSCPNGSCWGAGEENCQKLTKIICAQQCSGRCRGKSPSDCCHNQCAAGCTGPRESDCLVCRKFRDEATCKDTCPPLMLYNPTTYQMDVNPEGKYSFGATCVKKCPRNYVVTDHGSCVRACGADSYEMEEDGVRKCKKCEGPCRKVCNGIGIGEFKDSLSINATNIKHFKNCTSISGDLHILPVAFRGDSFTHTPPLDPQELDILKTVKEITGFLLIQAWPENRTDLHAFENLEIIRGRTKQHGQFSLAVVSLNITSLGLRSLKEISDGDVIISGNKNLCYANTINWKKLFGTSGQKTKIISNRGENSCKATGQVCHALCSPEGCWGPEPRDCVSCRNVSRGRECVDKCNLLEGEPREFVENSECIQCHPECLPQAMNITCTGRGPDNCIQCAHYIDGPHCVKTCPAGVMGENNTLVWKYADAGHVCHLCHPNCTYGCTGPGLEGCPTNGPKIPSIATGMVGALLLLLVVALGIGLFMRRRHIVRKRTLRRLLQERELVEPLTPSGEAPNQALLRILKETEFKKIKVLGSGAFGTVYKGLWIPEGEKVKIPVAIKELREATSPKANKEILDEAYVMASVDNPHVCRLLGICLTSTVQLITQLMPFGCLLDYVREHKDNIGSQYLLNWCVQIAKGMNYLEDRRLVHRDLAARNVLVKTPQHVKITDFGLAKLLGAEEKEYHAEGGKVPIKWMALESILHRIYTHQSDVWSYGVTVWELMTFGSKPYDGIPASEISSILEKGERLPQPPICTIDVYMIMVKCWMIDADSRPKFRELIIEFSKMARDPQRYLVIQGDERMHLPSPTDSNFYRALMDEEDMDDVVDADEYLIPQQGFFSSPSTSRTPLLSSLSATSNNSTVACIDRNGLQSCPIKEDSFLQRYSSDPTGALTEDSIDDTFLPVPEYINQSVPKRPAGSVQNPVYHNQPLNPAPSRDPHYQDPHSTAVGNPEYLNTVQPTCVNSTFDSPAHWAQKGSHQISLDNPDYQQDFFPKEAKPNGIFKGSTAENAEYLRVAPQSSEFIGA

CN(C)S(=O)(=O)c1ccc2c(c1)C(=CC1=CC3=C(CCCC3)C1)C(=O)N2 [3-(4,5,6,7-tetrahydroinden-2-methyldenyl)-5-[N,N-dimethylaminosulfonyl]2-indolinone] was tested, and the pIC50 (FLK-1R) was less than 4.00, the pIC50 (LCK) was 6.30 and the pIC50 (EGFR) was less than 4.00. It also gave a pIC50 (SRC) of 7.00, a pIC50 (FAK) of less than 5.00 and a pIC50 (PDGFR) of less than 4.00.
With NS(=O)(=O)c1ccc2c(c1)C(=CC1=CC3=C(CCCC3)C1)C(=O)N2 [3-(4,5,6,7-tetrahydroinden-2-methylidenyl)-5-[aminosulfonyl]-2-indolinone] the pIC50 (HUV-EC-C cells [1]; Homo sapiens) was 5.62, the pIC50 (HUV-EC-C cells [1]) was 5.48 and the pIC50 (FLK-1R) was less than 4.00. For the same molecule, the pIC50 (HUV-EC-C cells [2]; Homo sapiens) was 6.19, the pIC50 (HUV-EC-C cells [2]) was 5.97 and the pIC50 (LCK) was 6.15. For the same molecule, the pIC50 (EGFR) was less than 4.00, the pIC50 (SRC) was 6.10 and the pIC50 (FAK) was less than 5.00. It also gave a pIC50 (PDGFR) of 6.00.
